Where two headings read alike, the source gives them in different places.
Test system: human FXN
Experiment: FXN mRNA expression by qRT-PCR in GM15850 cells after 48 hr compound treatment
Format: cell-based
Conditions: read-out: EC50 WT (nM, 48 hr)
Description: Cell culture: Cells were cultured in RPMI1640 medium+15% FBS. Cells were maintained at a density between 2e5/mL and 1e6/mL. Cells were centrifuged, resuspended in fresh medium, counted and plated at 150,000 cells per well in 100 uL in a non-coated, flat bottom tissue culture plate.
Compound treatment: 10 mM stock solution of FA GeneTAC was diluted 1:10 in DMSO followed by a 1:100 dilution in growth medium. […] Compound was then diluted at a 1:3 ratio into growth medium containing 0.01% DMSO. 5-point, 3-fold dose response curve was generated. 11 μL of 10× compound was added to wells containing 100 μL cell suspension of GM15850. 11 μL growth medium containing 0.01% DMSO was added to all wells not treated with FA GeneTAC. Cells were allowed to incubate for 48 hrs prior to cell lysis using guanidine isothiocyanate solution.
RNA isolation: Total RNA was isolated and purified in 384-well column filter plates using chaotropic salt.
qRT-PCR: qRT-PCR reactions were assembled using AgPath-ID reagents (Thermo Fisher) using 6 uL mastermix and 4 μL RNA. qRT-PCR TaqMan primer probe sets against human FXN (Assay ID Hs01075496_m1) and human GAPDH (Assay ID Hs00266705_g1) were used to measure the intended targets. qRT-PCR was run on the ThermoFisher QuantStudio 6 PRO instrument using the manufacturer's recommended cycling conditions.
Data analysis: qPCR data was analyzed using Thermo Fisher Design and Analysis software. Data was exported to Excel and hFXN expression was normalized to hGAPDH expression.

[1] = Homo sapiens, GM15850 cells, 48 hr incubation, hFXN normalized to hGAPDH

Row | SMILES | EC50 [1] | other results
1 | CCCNC(=O)CCNC(=O)c1nc(NC(=O)CCNC(=O)c2cc(NC(=O)c3nc(NC(=O)CCNC(=O)c4cc(NC(=O)c5nc(NC(=O)COCCOCCOCCOCCOCCOCCOCCOc6ccc(NC(=O)C[C@@H]7N=C(c8ccc(Cl)cc8)c8c(sc(C)c8C)-n8c(C)nnc87)cc6)cn5C)cn4C)cn3C)cn2C)cn1C [Compound 49] | < 100 nM | –
2 | Cc1noc(C)c1-c1cnc2c(-c3ccc(C(=O)NCCOCCOCCOCCOCCOCCOCCOCCNC(=O)CCNC(=O)c4nc(NC(=O)CCNC(=O)c5cc(NC(=O)c6nc(NC(=O)CCNC(=O)c7cc(NC(=O)c8nccn8C)cn7C)cn6C)cn5C)cn4C)cc3)cn([C@@H](C)c3ccccn3)c2c1 [Compound 41] | 100 to 500 nM | –
3 | Cc1sc2c(c1C)C(c1ccc(Cl)cc1)=N[C@@H](CC(=O)Nc1ccc(OCCOCCOCCOCCOCCOCCOCCOCCC(=O)NCCCN(C)CCCNC(=O)c3cc(NC(=O)c4nc(NC(=O)CCNC(=O)c5cc(NC(=O)c6nc(NC(=O)CCNC(=O)c7cc(NC(=O)c8nccn8C)cn7C)cn6C)cn5C)cn4C)cn3C)cc1)c1nnc(C)n1-2 [Compound 56] | 100 to 500 nM | –
4 | CC(=O)N1c2ccc(-c3ccc(C(=O)NCCOCCOCCOCCOCCOCCOCCOCCOCCNC(=O)c4nc(NC(=O)CCNC(=O)c5cc(NC(=O)c6nc(NC(=O)CCNC(=O)c7cc(NC(=O)c8nc(NC(=O)CCNC(=O)COCCOCCOCCN9CCN(CC%10CCNCC%10)CC9)cn8C)cn7C)cn6C)cn5C)cn4C)cc3)cc2[C@H](Nc2ccc(Cl)cc2)C[C@@H]1C [Compound 88] | > 500 nM | –
5 | COC[C@@H](C)n1c(C2CCN(C(=O)COCCOCCOCCOCCOCCOCCOCCOCCNC(=O)CCNC(=O)c3nc(NC(=O)CCNC(=O)c4cc(NC(=O)c5nc(NC(=O)CCNC(=O)c6cc(NC(=O)c7nccn7C)cn6C)cn5C)cn4C)cn3C)CC2)nc2cnc3cc(-c4c(C)noc4C)c(OC)cc3c21 [Compound 44] | 100 to 500 nM | –
6 | Cc1sc2c(c1C)C(c1ccc(Cl)cc1)=N[C@@H](CC(=O)Nc1ccc(OCCOCCOCCOCCOCCOCCC(=O)NCCCCCCCNC(=O)CCNC(=O)c3nc(NC(=O)CCNC(=O)c4cc(NC(=O)c5nc(NC(=O)CCNC(=O)c6cc(NC(=O)c7nccn7C)cn6C)cn5C)cn4C)cn3C)cc1)c1nnc(C)n1-2 [Compound 59] | < 100 nM | –
7 | Cc1sc2c(c1C)C(c1ccc(Cl)cc1)=N[C@@H](CC(=O)Nc1ccc(OCCOCCOCCNC(=O)[C@H](CCCNC(=N)N)NC(=O)[C@H](CCCNC(=N)N)NC(=O)CCOCCOCCOCCNC(=O)CCNC(=O)c3nc(NC(=O)CCNC(=O)c4cc(NC(=O)c5nc(NC(=O)CCNC(=O)c6cc(NC(=O)c7nccn7C)cn6C)cn5C)cn4C)cn3C)cc1)c1nnc(C)n1-2 [Compound 99] | – | EC50 (Homo sapiens, GM15850, 48 h): < 100 nM
8 | Cc1sc2c(c1C)C(c1ccc(Cl)cc1)=N[C@@H](CC(=O)Nc1ccc(OCCOCCOCCOCCOCCOCCNC(=O)CCNC(=O)c3nc(NC(=O)CCNC(=O)c4cc(NC(=O)c5nc(NC(=O)CCNC(=O)c6cc(NC(=O)c7nccn7C)cn6C)cn5C)cn4C)cn3C)cc1)c1nnc(C)n1-2 [Compound 21] | 100 to 500 nM | –
9 | Cc1sc2c(c1C)C(c1ccc(Cl)cc1)=N[C@@H](CC(=O)Nc1ccc(OCCOCCOCCOCCOCCOCCC(=O)N(C)CCCN(C)CCCN(C)C(=O)CCNC(=O)c3nc(NC(=O)CCNC(=O)c4cc(NC(=O)c5nc(NC(=O)CCNC(=O)c6cc(NC(=O)c7nccn7C)cn6C)cn5C)cn4C)cn3C)cc1)c1nnc(C)n1-2 [Compound 54] | 100 to 500 nM | –
10 | CC(=O)N1c2ccc(C3=CCN(C(=O)COCCOCCOCCOCCOCCC(=O)NCCCN(C)CCCNC(=O)CCNC(=O)c4nc(NC(=O)CCNC(=O)c5cc(NC(=O)c6nc(NC(=O)CCNC(=O)c7cc(NC(=O)c8nccn8C)cn7C)cn6C)cn5C)cn4C)CC3)cc2N(Cc2ccccc2CO)C[C@@H]1C1CC1 [Compound 29] | – | EC50 (GM15850 cells, 48 hr incubation, hFXN normalized to hGAPDH): 100 to 500 nM
11 | CC(=O)N1c2ccc(C3=CCN(C(=O)COCCOCCOCCOCCOCCOCCOCCOCCNC(=O)CCNC(=O)c4nc(NC(=O)CCNC(=O)c5cc(NC(=O)c6nc(NC(=O)CCNC(=O)c7cc(NC(=O)c8nccn8C)cn7C)cn6C)cn5C)cn4C)CC3)cc2N(Cc2ccccc2CO)C[C@@H]1C1CC1 [Compound 46] | 100 to 500 nM | –

Source: patent US20240050576A1, “METHODS AND COMPOUNDS FOR THE TREATMENT OF GENETIC DISEASE” (Design Therapeutics, Inc., priority 2020, published 2024)
